According to patent US11684067B2, “Generation of peroxyformic acid through polyhydric alcohol formate” (priority 2014, dated 2023):
Several values for one entry are separate records, joined by “and”; a condition that tells them apart may be missing. Equal values may be shown once.

Legend:
[1] = tested on: Bacillus subitilisATCC 19659; assay: Sporicidal activity of ester PFA versus POAA (Example 23); type: cell-based, Bacillus subtilis; conditions: 20°C, dirty
From the text: Additional Bacillus pathogens were used to evaluate the micro efficacy of ester PFA generated according to methods of the present invention in comparison to POAA.

[2] = tested on: Enterococcus hirae ATCC 10541; assay: Bactericidal activity of ester PFA versus POAA, EN 1276, dirty conditions; type: cell-based; conditions: 20°C
From the text: (§1) Additional Staphylococcus, Enterococcus and Pseudomonas pathogens were used to evaluate the micro efficacy of ester PFA generated according to methods of the present invention in comparison to POAA.

[3] = tested on: Pseudomonas aeruginosa ATCC 15442; assay: as above; type: cell-based; conditions: 20°C
From the text: as §1

[4] = tested on: Staphylococcus aureus ATCC 6538; assay: as above; type: cell-based; conditions: 20°C
From the text: as §1

[5] = tested on: Nalidixic acid resistant E. coli O157:H7; assay: Reduction of E. coli on raw beef brisket, dip treatment; type: cell-based; conditions: 10 minutes dip, ambient, 220 ppm POAA / 180 ppm PFA / 50 ppm LAS per formula (Table 15)
Procedure: Nalidixic acid resistant E. coli O157:H7 was used to evaluate the efficacy in treatment with performic acid composition on raw beef brisket according to the conditions shown in Table 14.
The generation of PFA from the perhydrolysis of glycerol formates, PFA formulations, POAA formations and controls were evaluated as shown in Table 15.

[6] = Laundry disinfection efficacy, EPA protocol on 100% cotton carriers (Table 38); type: cell-based; conditions: 42 ppm, pH 7.7, 500 ppm hard water, 40° C., 5 minute exposure, vs water control
Procedure: The microbial efficacy of peroxyformic acid was also tested following the EPA protocol on 100% cotton carriers against a water control. The test conditions were pH 7.7, 500 ppm hard water, 40° C. and 5 minute exposure time. In comparison, the performance of peracetic acid was also tested under the same conditions.

[7] = tested on: Bacillus subitilisATCC 19659; assay: Sporicidal activity of ester PFA versus POAA (Example 21); type: cell-based, Bacillus subtilis; conditions: 20°C, dirty
From the text: Bacillus pathogens were used to evaluate the micro efficacy of ester PFA generated according to methods of the present invention in comparison to POAA.

pseudomonas = assay: Suspension test in cooling tower water samples; type: cell-based; conditions: 10 minutes
Procedure: The antimicrobial efficacy of peroxyformic acid generated through the perhydrolysis of glycerol formatted were tested against pseudomonas in cooling tower samples at both 25° C. and 37° C., along with the peroxyacetic acid (POAA) controls, and the results are summarized in Table 6 and 7 below.

[8] = tested on: Aspergillus brasiliensis ATCC 16404; assay: Fungicidal/yeasticidal activity of ester PFA versus POAA (Example 22); type: cell-based; conditions: 20°C, dirty
From the text: (§2) Canidia and Aspergillus pathogens were used to evaluate the micro efficacy of ester PFA generated according to methods of the present invention in comparison to POAA.

[9] = tested on: Candida albicans ATCC 10231; assay: as above; type: cell-based; conditions: 20°C, dirty
From the text: as §2

[10] = Physical properties (hygroscopicity, water solubility) of formate esters prepared; type: physicochemical; conditions: hexaformates: at room temperature
[11] = 300 ppm PFA pH 6.73 / 368 ppm POAA pH 6.88, 5 minutes
[12] = 300 ppm PFA pH 6.73 / 368 ppm POAA pH 6.88, 10 minutes
[13] = 400 ppm PFA pH 6.95 / 490 ppm POAA pH 6.65, 5 minutes
[14] = 400 ppm PFA pH 6.95 / 490 ppm POAA pH 6.65, 10 minutes
[15] = 20 ppm PFA pH 6.61 / 24.8 ppm POAA pH 6.73, 5 minutes
[16] = 30 ppm PFA pH 6.74 / 37.6 ppm POAA pH 6.90, 5 minutes
[17] = 50 ppm PFA pH 6.60 / 62.4 ppm POAA pH 6.98, 5 minutes
[18] = 300 ppm PFA pH 6.84 / 368 ppm POAA pH 6.73 (molar equivalent), 5 minutes
[19] = 300 ppm PFA pH 6.84 / 368 ppm POAA pH 6.73 (molar equivalent), 10 minutes
[20] = 400 ppm PFA pH 7.19 / 490 ppm POAA pH 6.78 (molar equivalent), 5 minutes
[21] = 400 ppm PFA pH 7.19 / 490 ppm POAA pH 6.78 (molar equivalent), 10 minutes
[22] = BP Cooling Water pH 8.74, 5 ppm Ester PFA / 6.13 ppm POAA, 25°C
[23] = BP Cooling Water pH 8.74, 5 ppm Ester PFA / 6.13 ppm POAA, 37°C
[24] = BP Cooling Water pH 8.74, 12.3 ppm POAA, 25°C
[25] = BP Cooling Water pH 8.74, 12.3 ppm POAA, 37°C
[26] = Peninsula Cooling Water pH 8.81, 5 ppm Ester PFA / 6.13 ppm POAA, 25°C
[27] = Peninsula Cooling Water pH 8.81, 5 ppm Ester PFA / 6.13 ppm POAA, 37°C
[28] = Peninsula Cooling Water pH 8.81, 12.3 ppm POAA, 25°C
[29] = Peninsula Cooling Water pH 8.81, 12.3 ppm POAA, 37°C
[30] = 200 ppm PFA pH 6.15 / 245 ppm POAA pH 6.56, 5 minutes
[31] = 200 ppm PFA pH 6.15 / 245 ppm POAA pH 6.56, 10 minutes
[32] = 200 ppm PFA pH 6.15 / 245 ppm POAA pH 6.56, 15 minutes
[33] = 300 ppm PFA pH 6.21 / 368 ppm POAA pH 6.63, 5 minutes
[34] = 300 ppm PFA pH 6.21 / 368 ppm POAA pH 6.63, 10 minutes

SMILES: CC(=O)OO [POAA, peroxyacetic acid, reference compound]
- Average CFU/mL [1, 11]: >3.0E+06 CFU/mL
- Log10 Growth [1, 11]: >6.48 Log10
- Log10 Reduction [1, 11]: <1.26 Log10
- Average CFU/mL [1, 12]: >3.0E+05 CFU/mL
- Log10 Growth [1, 12]: >5.48 Log10
- Log10 Reduction [1, 12]: <2.26 Log10
- Average CFU/mL [1, 13]: >3.0E+06 CFU/mL
- Log10 Growth [1, 13]: >6.48 Log10
- Log10 Reduction [1, 13]: <1.26 Log10
- Average CFU/mL [1, 14]: >3.0E+05 CFU/mL
- Log10 Growth [1, 14]: >5.48 Log10
- Log10 Reduction [1, 14]: <2.26 Log10
- Average CFU/mL [2, 15]: >3.30E + 05 CFU/mL
- Log10 Growth [2, 15]: >5.52 Log10
- Average CFU/mL [2, 16]: 9.25E + 03 CFU/mL
- Log10 Growth [2, 16]: 3.97 Log10
- Average CFU/mL [2, 17]: <140 CFU/mL
- Log10 Growth [2, 17]: <2.15 Log10
- Average CFU/mL [3, 15]: <140 CFU/mL
- Log10 Growth [3, 15]: <2.15 Log10
- Average CFU/mL [3, 16]: <140 CFU/mL
- Log10 Growth [3, 16]: <2.15 Log10
- Average CFU/mL [3, 17]: <140 CFU/mL
- Log10 Growth [3, 17]: <2.15 Log10
- Average CFU/mL [4, 15]: 1.77E + 05 CFU/mL
- Log10 Growth [4, 15]: 5.25 Log10
- Average CFU/mL [4, 16]: <140 CFU/mL
- Log10 Growth [4, 16]: <2.15 Log10
- Average CFU/mL [4, 17]: <140 CFU/mL
- Log10 Growth [4, 17]: <2.15 Log10
- Average Log CFU/cm2 [5]: 2.98 Log CFU/cm2
- Log reduction [5]: 1.06 Log
- CFU/cm2 ([5]; single samples): 1.20E+03 CFU/cm2 and 9.00E+02 CFU/cm2 and 8.00E+02 CFU/cm2
- CFU/ml ([5]; single samples): 6.00E+02 CFU/ml and 4.50E+02 CFU/ml and 4.00E+02 CFU/ml
- Log CFU/cm2 ([5]; single samples): 3.08 Log CFU/cm2 and 2.95 Log CFU/cm2 and 2.90 Log CFU/cm2
- Log reduction ([6]; Klebsiella pneumoniae ATCC 4352): 2.46
- Log reduction ([6]; Staphylococcus aureus ATCC 6538): >5.85
- Average CFU/mL [7, 18]: 7.50E+05 CFU/mL
- Log10 Growth [7, 18]: 5.88 Log10
- Log10 Reduction [7, 18]: 0.00 Log10
- Average CFU/mL [7, 19]: 5.00E+05 CFU/mL
- Log10 Growth [7, 19]: 5.70 Log10
- Log10 Reduction [7, 19]: 0.00 Log10
- Average CFU/mL [7, 20]: 8.50E+05 CFU/mL
- Log10 Growth [7, 20]: 5.93 Log10
- Log10 Reduction [7, 20]: 0.00 Log10
- Average CFU/mL [7, 21]: 4.00E+05 CFU/mL
- Log10 Growth [7, 21]: 5.60 Log10
- Log10 Reduction [7, 21]: 0.19 Log10
- Avg. Log10 Growth (pseudomonas; [22]): 4.10 Log10
- Log10 Reduction (pseudomonas; [22]): 1.57 Log10
- Avg. Log10 Growth (pseudomonas; [23]): 2.84 Log10
- Log10 Reduction (pseudomonas; [23]): 2.26 Log10
- Avg. Log10 Growth (pseudomonas; [24]): 3.26 Log10
- Log10 Reduction (pseudomonas; [24]): 2.41 Log10
- Avg. Log10 Growth (pseudomonas; [25]): 2.73 Log10
- Log10 Reduction (pseudomonas; [25]): 2.37 Log10
- Avg. Log10 Growth (pseudomonas; [26]): 3.81 Log10
- Log10 Reduction (pseudomonas; [26]): 1.37 Log10
- Avg. Log10 Growth (pseudomonas; [27]): 2.76 Log10
- Log10 Reduction (pseudomonas; [27]): 2.34 Log10
- Avg. Log10 Growth (pseudomonas; [28]): 3.30 Log10
- Log10 Reduction (pseudomonas; [28]): 1.88 Log10
- Avg. Log10 Growth (pseudomonas; [29]): 3.20 Log10
- Log10 Reduction (pseudomonas; [29]): 1.90 Log10
- Average CFU/mL [8, 30]: >1.65E+05 CFU/mL
- Log10 Growth [8, 30]: >5.22 Log10
- Log10 Reduction [8, 30]: <0.53 Log10
- Average CFU/mL [8, 31]: >1.65E+05 CFU/mL
- Log10 Growth [8, 31]: >5.22 Log10
- Log10 Reduction [8, 31]: <0.53 Log10
- Average CFU/mL [8, 32]: >1.65E+05 CFU/mL
- Log10 Growth [8, 32]: >5.22 Log10
- Log10 Reduction [8, 32]: <0.53 Log10
- Average CFU/mL [8, 33]: >1.65E+05 CFU/mL
- Log10 Growth [8, 33]: >5.22 Log10
- Log10 Reduction [8, 33]: <0.53 Log10
- Average CFU/mL [8, 34]: >1.65E+05 CFU/mL
- Log10 Growth [8, 34]: >5.22 Log10
- Log10 Reduction [8, 34]: <0.53 Log10
- Average CFU/mL [9, 30]: <140 CFU/mL
- Log10 Growth [9, 30]: <2.15 Log10
- Log10 Reduction [9, 30]: >4.14 Log10
- Average CFU/mL [9, 31]: <140 CFU/mL
- Log10 Growth [9, 31]: <2.15 Log10
- Log10 Reduction [9, 31]: >4.14 Log10
- Average CFU/mL [9, 32]: <140 CFU/mL
- Log10 Growth [9, 32]: <2.15 Log10
- Log10 Reduction [9, 32]: >4.14 Log10
- Average CFU/mL [9, 33]: <140 CFU/mL
- Log10 Growth [9, 33]: <2.15 Log10
- Log10 Reduction [9, 33]: >4.14 Log10
- Average CFU/mL [9, 34]: <140 CFU/mL
- Log10 Growth [9, 34]: <2.15 Log10
- Log10 Reduction [9, 34]: >4.14 Log10

SMILES: O=COC[C@@H](OC=O)[C@@H](OC=O)[C@H](OC=O)[C@@H](COC=O)OC=O [Mannitol Hexaformates]
- solubility in water of the isolated solid [10]: marginally soluble in water
